Experimental data from patent publication US7598341B2, “Molecules that selectively home to vasculature of premalignant or malignant lesions of the pancreas and other organs” (Burnham Institue for Medical Research, priority 2003, dated 2009).
“Also recorded” adds a separate entry of the source.

Key:
[1] = tested on: RIP1-Tag2 angiogenic islets and tumors; assay: In vivo homing of phage (pools and individual phage) in RIP1-Tag2 mice; parameters: species or system mouse; details: phage-displayed peptide, i.v., FIG. 1D, with ex vivo binding patterns
Experimental: For in vivo selection of phage that home specifically to premalignant lesions and malignant tumors, the ex vivo pre-selected phage pool was injected intravenously into 12 week old RIP1-Tag2 mice through the tail vein, allowed to circulate for 7 minutes and heart-perfused with PBS to remove unbound intravascular phage. As the vasculature is preferentially available for the phage to bind in this selection, there is an enrichment of phage that bind to the endothelium of the target tissue.
The RIP1-Tag2 lesions and control tissues (brain, kidney, spleen, lung, ‘white’ pancreas lacking hemorrhagic lesions and liver were excised to allow for comparison of homing efficiencies. Cell suspensions were prepared by mechanical disruption of the tissues. Tissues were washed to remove unbound phage, and the bound phage rescued and amplified by adding E. coli. The phage pool was re-injected into mice at a similar disease stage, and the cycle repeated. In each experiment, non-recombinant control phage were used as a control for relative selectivity.
Sets of 96 phage clones were randomly collected from each homing phage population that selectively homed to premalignant angiogenic islets or pancreatic tumor cells. Peptide-encoding DNA inserts from collected phage clones were amplified by PCR, and the PCR products sequenced. Phage representing the most frequently appearing peptide motifs were individually tested for their ability to selectively home to the lesions on which they were selected, relative to other stages in the tumorigenesis pathway and to control organs. Six of the phage selected for further analysis were from the tumor screen (referred to as KAA, RGR, RSR, VGVA, VGVG and KAR), and one (EYQ) was picked from the angiogenic screen.

[2] = tested on: RIP1-Tag2 pancreatic tumor, bTC3-derived subcutaneous transplant tumor, K14-HPV16 squamous cell carcinoma; assay: Relative homing efficiency of individual phage in various tumor models (FIG. 4A); assay type: in vivo, mouse; details: phage from the RIP1-Tag2 tumor screen
Experimental: (§1) To determine whether phage identified to home to pancreatic tumors also home to other types of tumors, these phage were tested using animals having various types of tumors, including bTC3 subcutaneous tumor and MDA MB-435 subcutaneous tumor. bTC3 transplant tumors arise following subcutaneous inoculation of nude mice with cultured islet tumor-derived (bTC3) cells (Efrat et al., 1988). Since the vasculature of a subcutaneously grown bTC3 tumor derives from skin, we also tested another subcutaneous transplant tumor, arising from inoculation of the MDA-MB-435 human breast carcinoma cell line. Finally, K14-HPV16 mice, another well-studied transgenic mouse model of cancer that develop tumors of the squamous epithelial cells of the skin (Arbeit et al., 1994; Coussens et al., 1996), was used to compare RIP1-Tag2 islet tumors to a tumor with similar multistage pathogenesis arising in a different tissue.
(§2) Tumors were dissected from the ear or chest of K14-HPV16 mice. For the bTC3 allograft models, 10^6 bTC3 tumor cells (Efrat et al., 1988) were inoculated under the skin of the rear flank of nu/nu mice in a BALB/c background and allowed to grow until approximately 5 mm in size, and then used for experimental analysis. MDA-MB-435 xenograft models were generated by inoculating 10^6 tumor cells subcutaneously in the chest of nu/nu Balb/c mice. Tumors were used for the homing/binding experiments at 8-12 weeks after injection of the tumor cells.
FIG. 4A is bar graph showing homing efficiency of individual phage to a pancreatic tumor in a RIP1-Tag2 mouse, a bTC3-derived subcutaneous transplant tumor in a nude mouse, and a squamous cell carcinoma in a K14-HPV16 mouse.

[3] = tested on: squamous cell carcinoma in a K14-HPV16 mouse; assay: Homing to HPV tumor; assay type: in vivo; details: FIG. 4A
Experimental: as §1, §2

[4] = tested on: bTC3-derived subcutaneous transplant tumor in a nude mouse; assay: Homing to bTC3 subcutaneous tumor; assay type: in vivo; details: FIG. 4A
Experimental: as §1, §2

[5] = tested on: RIP1-Tag2 angiogenic islets and tumors; assay: Localization of fluorescein-conjugated peptides after intravenous injection; assay type: in vivo, mouse; details: for homing selectivity of purified peptides: i.v. into 8-week or 12-week old RIP-Tag2 mice; for homing to normal islets, kidney, brain, liver, lung or spleen: purified peptides i.v.; for localization in RIP1-Tag2 angiogenic islets / localization in RIP1-Tag2 tumors / localization in normal islets: fluorescein-conjugated peptide i.v., 7 minutes circulation, FIG. 2
Experimental: Fluorescein-conjugated peptides corresponding to phage insert sequences were synthesized using an automated peptide synthesizer with standard solid-phase fluorenylmethoxycarbonyl (Fmoc) chemistry. […] of each individual fluorescein-conjugated peptide was injected intravenously into the tail vein of RIP1-Tag2 mice at 8 or 12 weeks of age, and into normal BL/6 mice. The peptide was allowed to circulate for 7 minutes, followed by heart perfusion first with PBS and then with Zn-buffered formalin. The RIP1-Tag2 pancreas and control organs (brain, kidney, liver, lung and spleen) were removed, fixed for one hour in formalin, washed with 1×PBS, placed in 30% sucrose for several hours, washed with 1×PBS, and embedded in OCT (Tissue-Tek). Each peptide was injected into at least three individual RIP1-Tag2 or normal mice at each of the different stages. To examine the localization of injected fluorescein-conjugated peptides, frozen sections ([…] thick) were cut on a cryostat, mounted in Vectashield Mounting Medium with DAPI (Vector Laboratories) and visualized under an inverted fluorescent microscope or a confocal microscope (Zeiss LSM 510 META).

[6] = tested on: endothelial cell and pericyte markers (MECA-32, NG2); assay: Co-localization of fluorescein-conjugated peptides with vascular markers; assay type: in vivo, mouse; details: fluorescein-conjugated peptide i.v.; for co-localization with endothelial cell and pericyte markers in RIP1-Tag2 islet lesions: MECA-32, NG2, FIG. 3
Experimental: To confirm that intravenous administration of phage libraries selects for phage carrying peptides that bind to endothelial molecules specific for the target vasculature, tissues were collected following i.v. infusion with the various fluorescein-conjugated peptides, sectioned, and evaluated with endothelial cell markers.
(§3) For immunohistochemistry, frozen slides were pre-incubated with blocking buffer (1×PNB from NEN Biosciences) for one hour, washed several times in 1×PBS and incubated with the primary antibody of interest overnight at 4° C. The cell-specific antibodies used were rat monoclonal anti-mouse CD31 (1:200; BD Pharmingen), rat monoclonal anti-mouse MECA-32 (1:200; BD Pharmingen), rabbit polyclonal anti-mouse NG2 (1:200; Chemicon), and rat monoclonal anti-mouse PDGFRb (CD140b) (1:200; eBioscience). The corresponding secondary antibodies; Cy-3 donkey anti-rabbit IgG and Rhodamine Red donkey anti-rat IgG (Jackson ImmunoResearch), were used at a 1:200 dilution and incubated for one hour at room temperature. The following species-matched immunoglobulins were used as negative controls; rabbit IgG (Vector Laboratories) and rat IgG (Jackson ImmunoResearch) at a 1:200 dilution. The slides were washed several times in 1×PBS and mounted in Vectashield Mounting Medium with DAPI (Vector Laboratories). Hematoxylin and eosin (H&E) staining was performed for histological grading of adjacent sections by standard methods, and lesions were graded as previously described (Lopez and Hanahan, 2002).
The primary analysis involved immunostaining with a mouse pan-endothelial cell antigen (MECA-32) antibody that recognizes a dimer of 50-55 kDa protein subunits present on all endothelial cells (Hallman et al., 1995; Leppink et al., 1989) (FIG. 3 B,C,H,I,N,O). Additional analyses involved immunostaining to reveal CD31/PE-CAM, or systemic infusion of a fluorescent-labeled lectin that binds to the endothelial lumen. In addition, tissue sections from peptide-infused mice were stained with an antibody recognizing NG2, a marker of the neovascular pericytes (Schlingemann et al., 1990, 1991) (FIG. 3 E,F,K,L,Q,R).

[7] = tested on: MDA MB-435 subcutaneous tumor; assay: Homing to MDA-MB-435 subcutaneous tumor; assay type: in vivo, mouse; details: fluorescein-conjugated peptide i.v., FIG. 4B
Experimental: as §1, §2

PDGFRβ [8] = target: T1, PDGFRβ (Homo sapiens, UniProt P09619); assay: Phage binding to transfected 293T cells (plaque assay); details: FIG. 5A
T1 construct: expressed in transfected cells; host or cells: 293T cells
Experimental: To confirm that the RGR peptide binds specifically to PDGFRβ, phage displaying this peptide were incubated with 293T cells overexpressing PDGFRβ. Recombinant 293T cells were prepared by transfecting with plasmids encoding PDGFRβ or VEGFR-2 (Borges et al., 2000) using Fugene transfection reagent (Roche Diagnostics). Briefly, 10 μg of plasmid was mixed with 700 μl of DMEM without serum and 30 μl of Fugene reagent, and incubated for 15 minutes at room temperature before adding the mixture to the cells. Forty-eight hours post-transfection the cells were detached from the culture plates using EDTA and washed once with PBS. Recombinant phage displaying the RSR, RGR peptides and control nonrecombinant phage (about 1×10^9 pfu) were incubated with the transfected cells for 2 hours at 4° C., followed by 5 washes with 1% BSA in PBS to remove the unbound phage. The bound phage were rescued by adding bacteria, and the binding efficiencies were determined by plaque assay.

PDGFRβ [9] = target: T2, PDGFRβ (Mus musculus, UniProt P05622); assay: Co-localization of i.v. injected fluorescein-conjugated peptide with PDGFRβ immunostaining in RIP1-Tag2 tumors; assay type: in vivo; details: tissue sections from RIP1-Tag2 tumors, FIG. 5B
T2 construct: from tissue; host or cells: pancreatic islet tumors of RIP1-Tag2 transgenic mice
Experimental: as §3
FIG. 5A is a bar graph showing binding of RGR or RSR phage to 293 cells transfected with either PDGFRβ, VEGFR2, or non-transfected cells.

T2 sequence (P05622 32-1098): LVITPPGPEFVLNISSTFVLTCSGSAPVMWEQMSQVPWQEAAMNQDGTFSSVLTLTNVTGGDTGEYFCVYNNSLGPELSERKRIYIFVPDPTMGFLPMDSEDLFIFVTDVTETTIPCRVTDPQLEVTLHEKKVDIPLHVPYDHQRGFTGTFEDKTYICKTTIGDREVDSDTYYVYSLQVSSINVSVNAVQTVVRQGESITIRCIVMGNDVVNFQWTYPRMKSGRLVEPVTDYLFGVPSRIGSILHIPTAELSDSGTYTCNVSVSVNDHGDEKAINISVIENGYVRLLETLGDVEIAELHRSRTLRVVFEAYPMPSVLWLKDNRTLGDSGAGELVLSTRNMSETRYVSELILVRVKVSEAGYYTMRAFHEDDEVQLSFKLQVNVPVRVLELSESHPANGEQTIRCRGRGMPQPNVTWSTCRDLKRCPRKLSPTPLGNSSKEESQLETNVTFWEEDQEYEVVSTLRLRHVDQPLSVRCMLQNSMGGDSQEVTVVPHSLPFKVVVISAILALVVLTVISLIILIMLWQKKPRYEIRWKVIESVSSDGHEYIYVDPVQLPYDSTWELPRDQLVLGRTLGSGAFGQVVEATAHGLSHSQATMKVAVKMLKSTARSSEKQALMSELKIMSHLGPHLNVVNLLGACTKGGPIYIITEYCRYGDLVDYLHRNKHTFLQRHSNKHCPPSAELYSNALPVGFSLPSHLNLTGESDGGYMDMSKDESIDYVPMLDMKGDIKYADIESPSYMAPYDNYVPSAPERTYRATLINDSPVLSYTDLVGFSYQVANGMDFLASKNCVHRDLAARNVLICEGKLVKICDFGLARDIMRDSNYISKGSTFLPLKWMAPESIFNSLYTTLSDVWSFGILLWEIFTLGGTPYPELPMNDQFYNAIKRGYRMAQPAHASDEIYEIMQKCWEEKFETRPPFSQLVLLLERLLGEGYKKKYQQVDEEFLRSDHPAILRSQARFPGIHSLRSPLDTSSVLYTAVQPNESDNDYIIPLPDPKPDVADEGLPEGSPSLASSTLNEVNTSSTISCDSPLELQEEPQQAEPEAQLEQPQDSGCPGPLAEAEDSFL
T1 sequence (P09619 33-1106, species assumed): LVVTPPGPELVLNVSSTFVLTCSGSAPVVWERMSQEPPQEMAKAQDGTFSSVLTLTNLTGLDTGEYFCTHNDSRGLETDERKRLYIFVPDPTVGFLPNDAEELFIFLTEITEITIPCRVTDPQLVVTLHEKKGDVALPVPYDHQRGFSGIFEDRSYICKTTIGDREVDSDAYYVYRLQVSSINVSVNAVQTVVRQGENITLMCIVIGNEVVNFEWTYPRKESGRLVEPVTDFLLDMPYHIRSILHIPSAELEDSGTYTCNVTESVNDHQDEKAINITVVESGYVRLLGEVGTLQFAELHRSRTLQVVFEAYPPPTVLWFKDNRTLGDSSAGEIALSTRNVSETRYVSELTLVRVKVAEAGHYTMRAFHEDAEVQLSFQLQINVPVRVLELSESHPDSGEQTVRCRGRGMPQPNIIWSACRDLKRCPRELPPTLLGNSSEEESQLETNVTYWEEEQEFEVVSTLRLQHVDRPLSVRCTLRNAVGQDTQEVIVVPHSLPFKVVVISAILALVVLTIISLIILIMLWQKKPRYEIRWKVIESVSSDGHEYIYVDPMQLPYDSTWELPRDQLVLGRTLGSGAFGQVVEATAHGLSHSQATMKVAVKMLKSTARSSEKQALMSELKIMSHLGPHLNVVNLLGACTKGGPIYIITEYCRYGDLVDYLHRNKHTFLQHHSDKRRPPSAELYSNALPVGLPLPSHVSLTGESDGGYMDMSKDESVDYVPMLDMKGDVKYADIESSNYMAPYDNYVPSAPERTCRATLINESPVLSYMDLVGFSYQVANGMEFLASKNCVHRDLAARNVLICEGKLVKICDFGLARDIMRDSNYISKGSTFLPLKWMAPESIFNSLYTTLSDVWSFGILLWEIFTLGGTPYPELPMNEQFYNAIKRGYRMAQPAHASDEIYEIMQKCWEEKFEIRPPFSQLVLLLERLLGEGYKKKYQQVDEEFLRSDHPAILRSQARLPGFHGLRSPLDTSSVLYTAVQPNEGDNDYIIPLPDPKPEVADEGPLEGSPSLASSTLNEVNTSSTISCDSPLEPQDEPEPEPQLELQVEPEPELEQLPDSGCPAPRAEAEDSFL

Row | Substance | homing class of individual phage (angiogenic islets or tumors in vivo) [1] | relative homing efficiencies in the various tumor models (category) [2] | homing to HPV tumor [3] | homing to TC3 tumor [4] | homing selectivity of purified peptides [5] | homing to normal islets, kidney, brain, liver, lung or spleen [5] | localization in RIP1-Tag2 angiogenic islets [5] | localization in RIP1-Tag2 tumors [5] | localization in normal islets [5] | co-localization with MECA-32 or NG2 in adjacent exocrine pancreas or normal pancreatic islets [6] | co-localization with endothelial cell and pericyte markers in RIP1-Tag2 islet lesions [6] | homing to MDA tumor [7] | binding to PDGFRβ-transfected cells (PDGFRβ [8]) | co-localization with PDGFRβ (PDGFRβ [9]) | co-localization with PDGFRβ (PDGFRβ [9]; listed as CRGRRST)
1 | VGVGEWSV | tumor-selective | more general homing to other tumors in addition to RIP1-Tag2 | did not home appreciably | homed | – | – | – | – | – | – | – | – | – | – | –
2 | FRVGVADV [linear homing peptide; homes to both types of lesion] | home to both types of lesion | selectively home to RIP1-Tag2 tumors | did not home appreciably | did not home appreciably | both angiogenic islets and tumors | did not appreciably home | – | – | – | – | – | – | – | – | –
3 | CEYQLDVE [linear homing peptide] | angiogenic islet-selective | – | – | – | highly selective for premalignant angiogenic islets | did not appreciably home | – | – | – | – | – | – | – | – | –
4 | CKAAKNK | tumor-selective | selectively home to RIP1-Tag2 tumors | did not home appreciably | did not home appreciably | malignant solid tumors | did not appreciably home | little or no localization | abundant localization | little or no localization | no co-localization | some co-localization both with endothelial cell and pericyte markers; also recorded: co-localized both with the endothelial cell and pericyte markers | homed | – | – | –
5 | CRGRRST [linear homing peptide] | home to both types of lesion | selectively home to RIP1-Tag2 tumors | did not home appreciably | did not home appreciably | both angiogenic islets and tumors | did not appreciably home | localizes | localizes | little or no localization | no co-localization | some co-localization both with endothelial cell and pericyte markers; also recorded: co-localized both with the endothelial cell and pericyte markers | did not home appreciably | bind | almost complete co-localization | co-localize
6 | CRSRKG [linear homing peptide] | angiogenic islet-selective | – | did not home appreciably | homed | highly selective for premalignant angiogenic islets | did not appreciably home | abundant accumulation | little or no localization | little or no localization | no co-localization | some co-localization both with endothelial cell and pericyte markers; also recorded: co-localized both with the endothelial cell and pericyte markers | did not home appreciably | – | – | –
7 | CKGAKAR | tumor-selective | more general homing to other tumors in addition to RIP1-Tag2 | homed | did not home appreciably | malignant solid tumors | did not appreciably home | – | – | – | – | – | – | – | – | –
